Laboratory results: patent publication US7361671B2, “Substituted heteroarylalkanoic acids” (The Institute for Pharmaceutical Discovery, Inc., priority 2001, dated 2008)
Structures can show the parent of a compound that is named as a salt.

Columns and labels:
[1] = target: human aldose reductase (hALR2) (Homo sapiens, UniProt P15121); assay: inhibition of human aldose reductase (hALR2) activity, methods similar to Butera et al.; format: biochemical; conditions: concentration to inhibit activity by 50%, read-out: hAR-#1 (aldose)
Description: Representative compounds of the invention are tested for their potency, selectivity and efficacy as inhibitors of human aldose reductase. […] Using this assay, the concentrations required to inhibit human aldose reductase (hALR2) activity by 50% (IC50) are determined.

Compound	melting point	IC50 [1] [nM]
Cc1nc(C)c(Cc2nc3c(F)c(F)cc(F)c3s2)c(C)c1CC(=O)O (as salt: hydrochloride) [Example 9, 2,4,6-trimethyl-5-(4,5,7-trifluoro-benzothiazol-2-ylmethyl)-pyridin-3-yl-acetic acid hydrochloride]	216 to 217 °C	
CCc1c(CC(=O)O)c(C)nc(C)c1Cc1nc2c(F)c(F)cc(F)c2s1 (as salt: hydrochloride) [Example 10, 2,6-dimethyl-4-ethyl-5-(4,5,7-trifluoro-benzothiazol-2-ylmethyl)-pyridin-3-yl-acetic acid hydrochloride]	193 to 195 °C	
O=C(O)Cc1cc(Cc2nc3c(F)c(F)cc(F)c3s2)cnc1Cc1ccccc1 (as salt: hydrochloride) [Example 12, 2-benzyl-5-(4,5,7-trifluoro-benzothiazol-2-ylmethyl)-pyridin-3-yl-acetic acid hydrochloride]	175 °C (dec.)	
O=C(O)Cc1cc(Cc2nc3c(F)c(F)cc(F)c3s2)cnc1-c1ccccc1 (as salt: hydrochloride) [Example 13, 2-phenyl-5-(4,5,7-trifluoro-benzothiazol-2-ylmethyl)-pyridin-3-yl-acetic acid hydrochloride]	110 °C (dec.)	
CCc1ncc(CC(=O)O)cc1Cc1nc2c(F)c(F)cc(F)c2s1 (as salt: hydrochloride) [Example 14, 6-ethyl-5-(4,5,7-trifluoro-benzothiazol-2-ylmethyl)-pyridin-3-yl-acetic acid hydrochloride]	220 °C (dec.)	
O=C(O)Cc1cnc(-c2ccccc2)c(Cc2nc3c(F)c(F)cc(F)c3s2)c1 (as salt: hydrochloride) [Example 15, 6-Phenyl-5-(4,5,7-trifluoro-benzothiazol-2-ylmethyl)-pyridin-3-yl-acetic acid hydrochloride]	205 to 207 °C (dec.)	
Cc1nc(C)c(Cc2nc3c(F)c(F)cc(F)c3s2)cc1CC(=O)O.Cl [Example 4, 2,6-Dimethyl-5-(4,5,7-trifluoro-benzothiazole-2-ylmethyl)-pyridin-3-yl-acetic acid hydrochloride]	211 °C (dec.)	4
CCc1nc(CC)c(Cc2nc3c(F)c(F)cc(F)c3s2)cc1CC(=O)O.Cl [Example 5, [2,6-Diethyl-5-(4,5,7-trifluoro-benzothiazol-2-ylmethyl)-pyridin-3-yl]acetic acid hydrochloride]	143 to 145 °C	7
Cl.O=C(O)Cc1cc(Cc2nc3c(F)c(F)cc(F)c3s2)c(-c2ccccc2)nc1-c1ccccc1 [Example 6, [2,6-Diphenyl-5-(4,5,7-trifluoro-benzothiazol-2-ylmethyl)-pyridin-3-yl]acetic acid hydrochloride]	84 to 86 °C	11
CCCc1nc(CCC)c(Cc2nc3c(F)c(F)cc(F)c3s2)cc1CC(=O)O.Cl [Example 7, [2,6-Dipropyl-5-(4,5,7-trifluoro-benzothiazol-2-ylmethyl)-pyridin-3-yl]acetic acid hydrochloride]	98 to 100 °C	7

Next, values leading:

melting point	IC50 [1] [nM]	Compound
185 °C (dec.)		O=C(O)Cc1cnc(Cc2ccccc2)c(Cc2nc3c(F)c(F)cc(F)c3s2)c1 (as salt: hydrochloride) [Example 16, 6-Benzyl-5-(4,5,7-trifluoro-benzothiazol-2-ylmethyl)-pyridin-3-yl-acetic acid hydrochloride]
170 to 171 °C	36	Cc1sc(C)c(Cc2nc3c(F)c(F)cc(F)c3s2)c1CC(=O)O [Example 18, [2,5-Dimethyl-4-(4,5,7-trifluoro-benzothiazol-2-ylmethyl)-thiophen-3-yl]-acetic acid]
132 to 133 °C	27	O=C(O)Cc1ccc(Cc2nc3c(F)c(F)cc(F)c3s2)s1 [Example 19, [5-(4,5,7-trifluoro-benzothiazol-2-ylmethyl)-thiophen-2-yl]-acetic acid]
144 to 146 °C	9	O=C(O)Cc1cc(Cc2nc3c(F)c(F)cc(F)c3s2)cs1 [Example 21, [4-(4,5,7-Trifluoro-benzothiazol-2-ylmethyl)-thiophen-2-yl]-acetic acid]
142 to 144 °C	24	O=C(O)Cc1ccsc1Cc1nc2c(F)c(F)cc(F)c2s1 [Example 23, [2-(4,5,7-trifluoro-benzothiazol-2-ylmethyl)-thiophen-3-yl]-acetic acid]
